Measured values from US12344610B2, “APOL1 inhibitors and methods of use” (Maze Therapeutics, Inc., priority 2022, dated 2025).

What was measured:
[1] = test system: HEK293 cells overexpressing APOL1 G2; assay: APOL1 G2 HEK293 cell rescue assay (reversal of cell death caused by overexpression of APOL1); format: cell-based; details: geometric mean of at least 2 assay runs, † = single assay run
Summary of the method: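 EC50 is the half-maximal effective concentration for reversing cell death driven by APOL1 G2 overexpression in HEK293 cells. Reported as geometric mean of at least 2 runs on separate days, each run averaging duplicate wells per plate; some values from a single run.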

[2] = target: T1, APOL1 G2 (Homo sapiens, UniProt O14791, DEL388-389); assay: APOL1-mediated calcium transport (calcium influx) assay, HEK T-REx/GCaMP6f/APOL1 G2 K6.3 cells, FLIPR TETRA; format: cell-based; details: prevention of calcium influx; geometric mean of at least 2 assay runs; † = average of a technical replicate from a single assay run
T1 construct: expressed in transfected cells; host or cells: HEK293 T-REx clonal line stably expressing GCaMP6f (HEK T-REx/GCaMP6f/APOL1 G2 K6.3), doxycycline induced
T1 sequence (O14791 with tags, fused parts or gaps DEL388-389): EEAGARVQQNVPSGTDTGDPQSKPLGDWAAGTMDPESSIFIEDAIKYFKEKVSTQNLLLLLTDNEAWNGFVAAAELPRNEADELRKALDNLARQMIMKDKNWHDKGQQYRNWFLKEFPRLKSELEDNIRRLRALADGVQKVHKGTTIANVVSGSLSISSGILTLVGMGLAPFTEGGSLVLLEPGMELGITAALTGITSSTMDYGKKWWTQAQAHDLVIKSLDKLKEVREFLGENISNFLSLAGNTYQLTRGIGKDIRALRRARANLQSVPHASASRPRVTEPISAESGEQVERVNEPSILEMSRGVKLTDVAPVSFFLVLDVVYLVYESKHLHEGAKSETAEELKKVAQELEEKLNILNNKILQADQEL
Summary of the method: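 A HEK293 T-REx clone stably expressing GCaMP6f had APOL1 G2 induced with doxycycline (20 ng/mL solution added) for 6 h. Cells were then washed into Ca2+-free Tyrode's buffer (pH 7.4) and preincubated with compounds (duplicate 8-point) for 10 min at room temperature. Ca2+ injection to 5 mM final produced FLIPR GCaMP fluorescence, giving AC50 for influx inhibition (geometric mean, ≥2 runs).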

[3] = Homo sapiens, HEK293, HEK293 overexpressing APOL1 G2

Row | Structure (SMILES) | EC50 [1, 3] [nM] | AC50 [2] [nM] | EC50 ([1]; HEK293 overexpressing APOL1 G2) [nM]
1 | O=C1CCC2c3ccc(OCCN4CCC5(CC4)C(=O)Nc4ccc(Cl)cc45)cc3CCN12 (single isomer, unassigned) [Compound 122, (S) or (R)-5-chloro-1′-[2-({3-oxo-1H,2H,3H,5H,6H,10bH-pyrrolo[2,1-a]isoquinolin-8-yl}oxy)ethyl]-1,2-dihydrospiro[indole-3,4′-piperidin]-2-one] | 87.5 | 616 | –
2 | CS(=O)(=O)C1(c2ccc(OCCN3CCC4(CC3)C(=O)Nc3ccc(Cl)cc34)cc2)CCOCC1 [Compound 188, 5-chloro-1′-{2-[4-(4-methanesulfonyloxan-4-yl)phenoxy]ethyl}-1,2-dihydrospiro[indole-3,4′-piperidin]-2-one] | 39.2 | 513 | –
3 | CS(=O)(=O)c1ccc(OCCN2CCC3(CC2)C(=O)Nc2ccc(Cl)cc23)cc1Cl [Compound 155, 5-chloro-1′-[2-(3-chloro-4-methanesulfonylphenoxy)ethyl]-1,2-dihydrospiro[indole-3,4′-piperidin]-2-one] | 26.2 | 452 | –
4 | CS(=O)(=O)C1(c2ccc(OCCN3CCC4(CC3)C(=O)Nc3ccc(C#N)cc34)cc2)CC1 [Compound 101, 1′-{2-[4-(1-methanesulfonylcyclopropyl)phenoxy]ethyl}-2-oxo-1,2-dihydrospiro[indole-3,4′-piperidine]-5-carbonitrile] | 49.6 | 634 | –
5 | Cc1cc(OCCN2CCC3(CC2)C(=O)Nc2ccc(C#N)cc23)ccc1S(C)(=O)=O [Compound 111, 1′-[2-(4-methanesulfonyl-3-methylphenoxy)ethyl]-2-oxo-1,2-dihydrospiro[indole-3,4′-piperidine]-5-carbonitrile] | 142 | 919 | –
6 | C[C@@H](COc1ccc(S(C)(=O)=O)cc1)N1CCC2(CC1)C(=O)Nc1ccc(Cl)cc12 (single isomer, unassigned) [Compound 10] | 90.3 | 1270 | –
7 | CC(c1c(F)cc(OCCN2CCC3(CC2)C(=O)Nc2ccc(Cl)cc23)cc1F)S(C)(=O)=O (single isomer, unassigned) [Compound 143, (R) or (S)-5-chloro-1′-{2-[3,5-difluoro-4-(1-methanesulfonylethyl)phenoxy]ethyl}-1,2-dihydrospiro[indole-3,4′-piperidin]-2-one] | – | 701 | 36.9
8 | Cc1cc(OCCN2CCC3(CC2)C(=O)Nc2ccc(Cl)cc23)cnc1S(C)(=O)=O [Compound 161, 5-chloro-1′-{2-[(6-methanesulfonyl-5-methylpyridin-3-yl)oxy]ethyl}-1,2-dihydrospiro[indole-3,4′-piperidin]-2-one] | 46.4 | 539 | –
9 | CC(c1c(F)cc(OCCN2CCC3(CC2)C(=O)Nc2ccc(C#N)cc23)cc1F)S(C)(=O)=O (single isomer, unassigned) [Compound 139, (R) or (S)-1′-{2-[3,5-difluoro-4-(1-methanesulfonylethyl)phenoxy]ethyl}-2-oxo-1,2-dihydrospiro[indole-3,4′-piperidine]-5-carbonitrile] | – | 1120 | 133
10 | CS(=O)(=O)CCCn1ncc2cc(OCCN3CCC4(CC3)C(=O)Nc3ccc(Cl)cc34)ccc21 [Compound 14, 5-chloro-1′-(2-{[1-(3-methanesulfonylpropyl)-1H-indazol-5-yl]oxy}ethyl)-1,2-dihydrospiro[indole-3,4′-piperidin]-2-one] | 130 | 704 | –
11 | O=C1Nc2ccc(Cl)cc2C12CCN(CCOc1ccc(S(=O)(=O)C(F)F)cc1)CC2 [Compound 112, 5-chloro-1′-[2-(4-difluoromethanesulfonylphenoxy)ethyl]-1,2-dihydrospiro[indole-3,4′-piperidin]-2-one] | 47.2 | 746 | –
12 | O=C1Nc2ccc(Cl)cc2C12CCN(CCOc1ccc(C3CCCS3(=O)=O)cc1)CC2 (single isomer, unassigned) [Compound 176, (S) or (R)-2-[4-(2-{5-chloro-2-oxo-1,2-dihydrospiro[indole-3,4′-piperidin]-1′-yl}ethoxy)phenyl]-1λ^6-thiolane-1,1-dione] | 46.9 | 547 | –
13 | CS(=O)(=O)c1ccc(OCCN2CCC3(CC2)C(=O)Nc2ccc(C#N)cc23)cc1C(F)F [Compound 100, 1′-{2-[3-(difluoromethyl)-4-methanesulfonylphenoxy]ethyl}-2-oxo-1,2-dihydrospiro[indole-3,4′-piperidine]-5-carbonitrile] | 46.5 | 503 | –
14 | CC(C)n1ncc2cc(OCCN3CCC4(CC3)C(=O)Nc3ccc(Cl)cc34)ccc21 [Compound 16, 5-chloro-1′-(2-{[1-(propan-2-yl)-1H-indazol-5-yl]oxy}ethyl)-1,2-dihydrospiro[indole-3,4′-piperidin]-2-one] | 112 | 1160 | –
15 | CS(=O)(=O)C1(c2ccc(OCCN3CCC4(CC3)C(=O)Nc3ccc(C#N)cc34)cc2)COC1 [Compound 109, 1′-{2-[4-(3-methanesulfonyloxetan-3-yl)phenoxy]ethyl}-2-oxo-1,2-dihydrospiro[indole-3,4′-piperidine]-5-carbonitrile] | 96.9 | 1190 | –
16 | CC(c1ccc(OCCN2CCC3(CC2)C(=O)Nc2ccc(C#N)cc23)cc1)S(C)(=O)=O (single isomer, unassigned) [Compound 134, (S) or (R)-1′-{2-[4-(1-methanesulfonylethyl)phenoxy]ethyl}-2-oxo-1,2-dihydrospiro[indole-3,4′-piperidine]-5-carbonitrile] | 199 | 879 | –
17 | CS(=O)(=O)C1(c2ccc(OCCN3CCC4(CC3)C(=O)Nc3ccc(C#N)cc34)cc2C(F)(F)F)COC1 [Compound 166, 1′-{2-[4-(3-methanesulfonyloxetan-3-yl)-3-(trifluoromethyl)phenoxy]ethyl}-2-oxo-1,2-dihydrospiro[indole-3,4′-piperidine]-5-carbonitrile] | 56.1 | 618 | –
18 | O=C1NCC2c3ccc(OCCN4CCC5(CC4)C(=O)Nc4ccc(Cl)cc45)cc3CCN12 (single isomer, unassigned) [Compound 117, (R) or (S)-5-chloro-1′-[2-({3-oxo-1H,2H,3H,5H,6H,10bH-imidazo[4,3-a]isoquinolin-8-yl}oxy)ethyl]-1,2-dihydrospiro[indole-3,4′-piperidin]-2-one] | – | 396 | 81.5
19 | CS(=O)(=O)C1(c2ccc(OCCN3CCC4(CC3)C(=O)Nc3ccc(Cl)cc34)cc2)CCC1 [Compound 180, 5-chloro-1′-{2-[4-(1-methanesulfonylcyclobutyl)phenoxy]ethyl}-1,2-dihydrospiro[indole-3,4′-piperidin]-2-one] | 22.1 | 756 | –
20 | O=C1NCC2c3ccc(OCCN4CCC5(CC4)C(=O)Nc4ccc(Cl)cc45)cc3CCN12 (single isomer, unassigned) [Compound 116, (S) or (R)-5-chloro-1′-[2-({3-oxo-1H,2H,3H,5H,6H,10bH-imidazo[4,3-a]isoquinolin-8-yl}oxy)ethyl]-1,2-dihydrospiro[indole-3,4′-piperidin]-2-one] | 81.8 | 466 | –
21 | CS(=O)(=O)c1ccc(OCCN2CCC3(CC2)C(=O)Nc2c(C#N)cc(Cl)cc23)cc1 [Compound 9, 5-chloro-1′-[2-(4-methanesulfonylphenoxy)ethyl]-2-oxo-1,2-dihydrospiro[indole-3,4′-piperidine]-7-carbonitrile] | 1760 | 1310 | –
22 | O=C1CCc2cc(OCCN3CCC4(CC3)C(=O)Nc3ccc(Cl)cc34)ccc2N1[C@H]1C[C@@H](O)C1 [Compound 114, 5-chloro-1′-[2-({2-oxo-1-[(cis)-3-hydroxycyclobutyl]-1,2,3,4-tetrahydroquinolin-6-yl}oxy)ethyl]-1,2-dihydrospiro[indole-3,4′-piperidin]-2-one] | 46.5 | 529 | –
23 | O=C1CCC2c3ccc(OCCN4CCC5(CC4)C(=O)Nc4ccc(Cl)cc45)cc3CCN12 (single isomer, unassigned) [Compound 123, (R) or (S)-5-chloro-1′-[2-({3-oxo-1H,2H,3H,5H,6H,10bH-pyrrolo[2,1-a]isoquinolin-8-yl}oxy)ethyl]-1,2-dihydrospiro[indole-3,4′-piperidin]-2-one] | – | 796 | 79.5
24 | CC(C)(c1ccc(OCCN2CCC3(CC2)C(=O)Nc2ccc(C#N)cc23)cn1)S(C)(=O)=O [Compound 191, 1′-(2-{[6-(2-methanesulfonylpropan-2-yl)pyridin-3-yl]oxy}ethyl)-2-oxo-1,2-dihydrospiro[indole-3,4′-piperidine]-5-carbonitrile] | 130 | 1170 | –
25 | CN=S(C)(=O)c1ccc(OCCN2CCC3(CC2)C(=O)Nc2ccc(Cl)cc23)cc1 (centres unmarked) [Compound 147, 5-chloro-1′-(2-{4-[methyl(methylimino)oxo-λ^6-sulfanyl]phenoxy}ethyl)-1,2-dihydrospiro[indole-3,4′-piperidin]-2-one] | 63.1 | 492 | –
